Legend:
[1] = 298.15 K; for surface tension liquid-gas: Ring tensiometer; for mass density: 101.33 kPa, Liquid
[2] = xn = mol fraction of the nth substance listed; conditions: 298.15 K, Ring tensiometer

C1COCCO1 [1,4-dioxane]
[1]
Conditions	mass density [kg/m3]	surface tension liquid-gas [mN/m]
–	1027.82	32.71

CCCCOC(C)=O [butyl ethanoate]
[1]
Conditions	mass density [kg/m3]	surface tension liquid-gas [mN/m]
–	876.38	24.85

CCCCCCOC(C)=O [hexyl ethanoate] + CN(C)C=O
[2]
Conditions	surface tension liquid-gas [mN/m]
x1 = 0.0495	35.78
x1 = 0.0964	35.06
x1 = 0.1435	34.43
x1 = 0.198	33.72
x1 = 0.2432	33.16
x1 = 0.299	32.51
x1 = 0.349	31.96
x1 = 0.397	31.46
x1 = 0.444	31.02
x1 = 0.4969	30.57
x1 = 0.5461	30.12
x1 = 0.5945	29.72
x1 = 0.6434	29.35
x1 = 0.6908	29.01
x1 = 0.7457	28.61
x1 = 0.7896	28.31
x1 = 0.8466	27.99
x1 = 0.8951	27.67
x1 = 0.9494	27.41

CCCCCOC(C)=O [pentyl ethanoate]
[1]
Conditions	mass density [kg/m3]	surface tension liquid-gas [mN/m]
–	870.17	25.21

CCCCCOC(C)=O [pentyl ethanoate] + CN(C)C=O
[2]
Conditions	surface tension liquid-gas [mN/m]
x1 = 0.05	34.9
x1 = 0.0941	34.08
x1 = 0.1466	33.24
x1 = 0.198	32.24
x1 = 0.2452	31.67
x1 = 0.2909	30.99
x1 = 0.3496	30.37
x1 = 0.3978	29.95
x1 = 0.4481	29.3
x1 = 0.4998	28.87
x1 = 0.5453	28.59
x1 = 0.5998	28.05
x1 = 0.6445	27.78
x1 = 0.6901	27.39
x1 = 0.7499	27.09
x1 = 0.7958	26.83
x1 = 0.8477	26.51
x1 = 0.8965	26.23
x1 = 0.9397	26.09

CN(C)C=O [dimethylformamide]
[1]
Conditions	mass density [kg/m3]	surface tension liquid-gas [mN/m]
–	943.81	36.98

CCCCCCOC(C)=O [hexyl ethanoate] + C1COCCO1
[2]
Conditions	surface tension liquid-gas [mN/m]
x1 = 0.0467	32.56
x1 = 0.0925	32.06
x1 = 0.1414	31.56
x1 = 0.1905	31.1
x1 = 0.2422	30.62
x1 = 0.2921	30.17
x1 = 0.3417	29.79
x1 = 0.3934	29.43
x1 = 0.4434	29.11
x1 = 0.495	28.81
x1 = 0.5433	28.56
x1 = 0.5962	28.29
x1 = 0.6408	28.09
x1 = 0.6859	27.91
x1 = 0.7406	27.71
x1 = 0.7981	27.52
x1 = 0.8426	27.38
x1 = 0.8954	27.22
x1 = 0.9448	27.12

CCCCCOC(C)=O [pentyl ethanoate] + C1COCCO1
[2]
Conditions	surface tension liquid-gas [mN/m]
x1 = 0.05	32.35
x1 = 0.1026	31.65
x1 = 0.1516	31.05
x1 = 0.2062	30.52
x1 = 0.2562	30.05
x1 = 0.311	29.48
x1 = 0.3637	29.01
x1 = 0.4209	28.58
x1 = 0.4616	28.27
x1 = 0.5112	27.92
x1 = 0.5614	27.55
x1 = 0.6136	27.3
x1 = 0.6558	27.07
x1 = 0.7043	26.89
x1 = 0.7538	26.71
x1 = 0.8033	26.56
x1 = 0.8511	26.39
x1 = 0.8956	26.26
x1 = 0.9449	26.12

CCCCOC(C)=O [butyl ethanoate] + CN(C)C=O
[2]
Conditions	surface tension liquid-gas [mN/m]
x1 = 0.0508	35.02
x1 = 0.0995	33.45
x1 = 0.1441	32.35
x1 = 0.1809	31.7
x1 = 0.25	30.5
x1 = 0.2962	29.75
x1 = 0.3447	29.19
x1 = 0.3904	28.66
x1 = 0.4455	28.19
x1 = 0.4954	27.69
x1 = 0.5443	27.35
x1 = 0.5956	27.07
x1 = 0.648	26.66
x1 = 0.6993	26.36
x1 = 0.7466	26.16
x1 = 0.7935	25.81
x1 = 0.8467	25.65
x1 = 0.8983	25.47
x1 = 0.9464	25.26

CCCCCCOC(C)=O [hexyl ethanoate]
[1]
Conditions	mass density [kg/m3]	surface tension liquid-gas [mN/m]
–	868.52	26.39

CCCCOC(C)=O [butyl ethanoate] + C1COCCO1
[2]
Conditions	surface tension liquid-gas [mN/m]
x1 = 0.05	31.19
x1 = 0.0975	30.51
x1 = 0.1457	29.87
x1 = 0.1995	29.32
x1 = 0.2485	28.88
x1 = 0.2883	28.55
x1 = 0.3445	28.13
x1 = 0.3932	27.79
x1 = 0.4475	27.47
x1 = 0.4929	27.21
x1 = 0.5486	26.93
x1 = 0.592	26.69
x1 = 0.6429	26.45
x1 = 0.6933	26.2
x1 = 0.7466	25.97
x1 = 0.7954	25.8
x1 = 0.8438	25.56
x1 = 0.8901	25.36
x1 = 0.9419	25.16

— the NIST ThermoML archive (doi:10.1021/je9002114)
